Source: PubChem BioAssay (NCI)
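Cells were grown in 96-well plates and exposed to each compound for 48 hours at five concentrations; endpoints were interpolated linearly between bracketing concentrations, or set to the highest concentration if not reached. The concentration for 50% growth inhibition is given as GI50. At the TGI there is no net growth.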

Experiments:
Assay in all cases: NCI tumour cell line growth inhibition, 48 h
[1] = system: SK-OV-3 ovarian
[2] = system: UACC-62 melanoma
[3] = system: TK-10 renal
[4] = system: SR leukemia
[5] = system: MOLT-4 leukemia
[6] = system: 786-0 renal
[7] = system: MDA-MB-231 breast
[8] = system: SK-MEL-2 melanoma
[9] = system: CCRF-CEM leukemia
[10] = system: BT-549 breast
[11] = system: UACC-257 melanoma
[12] = system: M14 melanoma
[13] = system: SW-620 colon
[14] = system: HOP-62 NSCLC
[15] = system: MDA-MB-435
[16] = system: HS 578T breast
[17] = system: KM12 colon
[18] = system: OVCAR-8 ovarian
[19] = system: RPMI-8226 leukemia
[20] = system: HCT-15 colon
[21] = system: HL-60(TB) leukemia
[22] = system: SF-295 CNS
[23] = system: NCI-H226 lung
[24] = system: SF-539 CNS
[25] = system: SK-MEL-28 melanoma
[26] = system: UO-31 renal
[27] = system: PC-3 prostate
[28] = system: T-47D breast
[29] = system: K-562 leukemia
[30] = system: DU-145 prostate
[31] = system: HCC-2998 colon
[32] = system: A498 renal
[33] = system: MCF7 breast
[34] = system: IGROV1 ovarian
[35] = system: HT29 colon
[36] = system: NCI/ADR-RES ovarian
[37] = system: SF-268 CNS
[38] = system: A549 NSCLC
[39] = system: MALME-3M melanoma
[40] = system: SK-MEL-5 melanoma
[41] = system: SN12C renal
[42] = system: ACHN renal
[43] = system: NCI-H460 lung
[44] = system: HOP-92 NSCLC
[45] = system: SNB-75 CNS
[46] = system: CAKI-1 renal
[47] = system: SNB-19 CNS
[48] = system: NCI-H23 lung
[49] = system: RXF 393 renal
[50] = system: OVCAR-5 ovarian
[51] = system: COLO 205 colon
[52] = system: OVCAR-4 ovarian

Structure (SMILES): Cc1cc2nc(C(Cl)Cl)nc(-c3cccs3)n2n1
- GI50 [1]: 2150 nM
- TGI [1]: 6510 nM
- GI50 [2]: 3000 nM
- TGI [2]: > 100000 nM
- GI50 [3]: 2110 nM
- TGI [3]: 5920 nM
- GI50 [4]: 1430 nM
- TGI [4]: > 100000 nM
- GI50 [5]: 1480 nM
- TGI [5]: > 100000 nM
- GI50 [6]: 4700 nM
- TGI [6]: > 100000 nM
- GI50 [7]: 1550 nM
- TGI [7]: 4430 nM
- GI50 [8]: 3050 nM
- TGI [8]: > 100000 nM
- GI50 [9]: 4220 nM
- TGI [9]: > 100000 nM
- GI50 [10]: 7670 nM
- TGI [10]: > 100000 nM
- GI50 [11]: 1870 nM
- TGI [11]: 4550 nM
- GI50 [12]: 2100 nM
- TGI [12]: 4990 nM
- GI50 [13]: 1380 nM
- TGI [13]: 8100 nM
- GI50 [14]: 938 nM
- TGI [14]: 4430 nM
- GI50 [15]: 1860 nM
- TGI [15]: 3810 nM
- GI50 [16]: 1930 nM
- TGI [16]: 6210 nM
- GI50 [17]: 2020 nM
- TGI [17]: 4510 nM
- GI50 [18]: 1270 nM
- TGI [18]: > 100000 nM
- GI50 [19]: 1400 nM
- TGI [19]: 5470 nM
- GI50 [20]: 1200 nM
- TGI [20]: 4030 nM
- GI50 [21]: 346 nM
- TGI [21]: 2390 nM
- GI50 [22]: 1270 nM
- TGI [22]: 5800 nM
- GI50 [23]: > 100000 nM
- TGI [23]: > 100000 nM
- GI50 [24]: 2270 nM
- TGI [24]: 7490 nM
- GI50 [25]: 1830 nM
- TGI [25]: 3630 nM
- GI50 [26]: 1670 nM
- TGI [26]: 5140 nM
- GI50 [27]: 1410 nM
- TGI [27]: 4320 nM
- GI50 [28]: 1400 nM
- TGI [28]: 7660 nM
- GI50 [29]: 2540 nM
- TGI [29]: > 100000 nM
- GI50 [30]: 289 nM
- TGI [30]: 858 nM
- GI50 [31]: 514 nM
- TGI [31]: 1910 nM
- GI50 [32]: 1200 nM
- TGI [32]: 2660 nM
- GI50 [33]: 705 nM
- TGI [33]: > 100000 nM
- GI50 [34]: 2430 nM
- TGI [34]: > 100000 nM
- GI50 [35]: 496 nM
- TGI [35]: 2190 nM
- GI50 [36]: 1260 nM
- TGI [36]: 4720 nM
- GI50 [37]: 1980 nM
- TGI [37]: 7270 nM
- GI50 [38]: 374 nM
- TGI [38]: 3510 nM
- GI50 [39]: 2210 nM
- TGI [39]: 5310 nM
- GI50 [40]: 9610 nM
- TGI [40]: > 100000 nM
- GI50 [41]: > 100000 nM
- TGI [41]: > 100000 nM
- GI50 [42]: 366 nM
- TGI [42]: 2440 nM
- GI50 [43]: 333 nM
- TGI [43]: 1570 nM
- GI50 [44]: 1410 nM
- TGI [44]: 3920 nM
- GI50 [45]: 702 nM
- TGI [45]: 2940 nM
- GI50 [46]: 1660 nM
- TGI [46]: 5970 nM
- GI50 [47]: 1180 nM
- TGI [47]: 5990 nM
- GI50 [48]: 953 nM
- TGI [48]: 2960 nM
- GI50 [49]: 838 nM
- TGI [49]: 2230 nM
- GI50 [50]: 1930 nM
- TGI [50]: 5730 nM
- GI50 [51]: 942 nM
- TGI [51]: 3290 nM
- GI50 [52]: 2120 nM
- TGI [52]: 4740 nM
